# Patent US20260053811A1, “METHODS OF TREATING HYPERTENSION IN OBESE SUBJECTS” (Mineralys Therapeutics, Inc., priority 2022, published 2026)
# System: hypertensive subjects
# Experiment: Seated automated office blood pressure (AOBP) in randomized, placebo-controlled, dose-ranging study
# Format: in vivo, human
# Experimental: A randomized, double-blinded, placebo-controlled, dose-ranging, multicenter study was conducted to evaluate the effect of orally administered Compound A HBr on blood pressure for the treatment of hypertension in male and female subjects ≥18 years of age.
# The study consists of two parts. For enrollment into Part 1 of the study, a subject's value of plasma renin activity (PRA) must be ≤1 ng/mL/h based on morning measurement. If the value of PRA >1 ng/mL/h based on morning measurement, then subjects may be eligible to enter Part 2 of the study.
# For Part 1, 163 enrolled subjects ≥18 years of age were randomized into 6 equal treatment groups (1:1:1:1:1:1) to 12.5 mg BID, 25 mg BID, 12.5 mg QD, 50 mg QD, 100 mg QD, or placebo. After a review of interim clinical data, the 2 lowest dose levels (12.5 mg QD and 12.5 mg BID) were stopped for future randomization due to a lack of consistent meaningful reduction of blood pressure, but the patients randomized to that point remained in the study through completion. Thus, after the review of interim clinical data, subjects were randomized into 4 equal treatment groups (1:1:1:1) to 25 mg BID, 50 mg QD, 100 mg QD, or placebo.
# For Part 2, 36 enrolled subjects ≥18 years of age were randomized (5:1) to either 100 mg QD Compound A HBr or placebo such that the Compound A HBr treatment group consisted of approximately 30 subjects and the placebo treatment group will consist of approximately 6 subjects.
# Subjects orally administered the assigned study drug (Compound A HBr or placebo) according to the assigned dosing regimen for 8 weeks beginning on Study Day 1. All subjects in Part 1 (regardless of dosing group) received BID dosing to preserve the integrity of the blind; active drug is administered as the morning dose for all QD dose groups. Subjects returned to the research facility or were seen by the clinical investigator or approved home health care professional at the end of Study Weeks 1, 2, 3, 4, 5, 6, 7, and 8 (±2 days) for protocol-defined efficacy and safety assessments and procedures, assessment of adverse events (AEs), and confirmation of compliance with study drug usage. Subjects also completed a telephone visit and blood pressure (BP) check at home approximately 3 days post last dose of study drug. Subjects attended up to 14 full clinic visits, including a pre-Screening visit, a Screening/start of Placebo Run-in visit, a second visit during Placebo Run-in, a clinic visit to initiate the ABPM procedure, a Randomization visit, 8 weekly visits during double-blind treatment, and an end-of-study visit scheduled 4 weeks after the last study treatment for final efficacy and safety assessments.
# An automated oscillometric sphygmomanometer device was used to measure the subjects' systolic and diastolic blood pressure in office after approximately 5 minutes of rest in the seated position.
# The primary endpoint is the change in office-measured (mean of last 2 of 5 unattended measurements using an automated oscillometric sphygmomanometer device after approximately 5 minutes of rest in the seated position) systolic blood pressure (SBP) from baseline to the end of Study Week 8.
# Secondary endpoints of this study were: • (a) Change in 24-hour ambulatory blood pressure monitoring (ABPM) parameters (systolic and diastolic) from baseline to the end of Study Week 7. • (b) Change in office-measured SBP from baseline to the end of Study Weeks 1, 2, 3, 4, 5, 6, and 7. • (c) Change in office-measured diastolic blood pressure (DBP) from baseline to the end of Study Weeks 1, 2, 3, 4, 5, 6, 7, and 8. • (d) Proportion of subjects who achieve office-measured BP of ≤130/80 mm Hg by the end of Study Week 8.
# [1] = Part 2, 100 mg QD, Thiazide Diuretic Use at Baseline Yes
# [2] = Part 2, 100 mg QD, subgroup ACEi/ARBs No (n 1)
# [3] = Part 2, 100 mg QD, subgroup ACEi/ARBs Yes
# [4] = Part 2, 100 mg QD, subgroup AHTs 2
# [5] = Part 2, 100 mg QD, subgroup AHTs ≥3
# [6] = Part 2, 100 mg QD, subgroup Age 65-79 yr
# [7] = Part 2, 100 mg QD, subgroup Age <65 yr
# [8] = Part 2, 100 mg QD, subgroup Age ≥80 yr (n 1)
# [9] = Part 2, 100 mg QD, subgroup BMI 25-30 kg/m^2
# [10] = Part 2, 100 mg QD, subgroup BMI <25 kg/m^2
# [11] = Part 2, 100 mg QD, subgroup BMI >30 kg/m^2
# [12] = Part 2, 100 mg QD, subgroup PRA 1-5 ng/mL/hr
# [13] = Part 2, 100 mg QD, subgroup PRA >5 ng/mL/hr
# [14] = Part 2, 100 mg QD, subgroup Race Black or AA
# [15] = Part 2, 100 mg QD, subgroup Race Other
# [16] = Part 2, 100 mg QD, subgroup Seated SBP Tertile High
# [17] = Part 2, 100 mg QD, subgroup Seated SBP Tertile Low
# [18] = Part 2, 100 mg QD, subgroup Seated SBP Tertile Middle
# [19] = Part 2, 100 mg QD, subgroup Sex Female
# [20] = Part 2, 100 mg QD, subgroup Sex Male
# [21] = pooled 50 mg QD, 100 mg QD, 12.5 mg BID and 25 mg BID cohorts (N=103)
# [22] = pooled 50 mg QD, 100 mg QD, 12.5 mg BID, 25 mg BID cohorts, week 8
smiles,measurement,setting,value
CC(=O)N[C@H]1CC[C@H](NC(=O)CN2CCN(c3nncc(-c4ccc(C)cc4)n3)CC2)CC1 [Compound A HBr],Mean Automated Office-Measured Systolic Blood Pressure at Wk 8,[1],131.72 mmHg
same,Mean Change from Baseline at Week 8 in Automated Office-Measured Systolic Blood Pressure,[1],−10.50 mmHg
same,"Automated Office-Measured Diastolic Blood Pressure, Wk 8, mean",[2],87.00 mmHg
same,"Change from Baseline at Week 8 in Automated Office-Measured Diastolic Blood Pressure, mean",[2],0.00 mmHg
same,"Automated Office-Measured Diastolic Blood Pressure, Wk 8, mean",[3],71.66 mmHg
same,"Change from Baseline at Week 8 in Automated Office-Measured Diastolic Blood Pressure, mean",[3],−5.88 mmHg
same,"Automated Office-Measured Diastolic Blood Pressure, Wk 8, mean",[4],71.58 mmHg
same,"Change from Baseline at Week 8 in Automated Office-Measured Diastolic Blood Pressure, mean",[4],−6.21 mmHg
same,"Automated Office-Measured Diastolic Blood Pressure, Wk 8, mean",[5],73.18 mmHg
same,"Change from Baseline at Week 8 in Automated Office-Measured Diastolic Blood Pressure, mean",[5],−4.77 mmHg
same,"Automated Office-Measured Diastolic Blood Pressure, Wk 8, mean",[6],72.38 mmHg
same,"Change from Baseline at Week 8 in Automated Office-Measured Diastolic Blood Pressure, mean",[6],−3.83 mmHg
same,"Automated Office-Measured Diastolic Blood Pressure, Wk 8, mean",[7],72.50 mmHg
same,"Change from Baseline at Week 8 in Automated Office-Measured Diastolic Blood Pressure, mean",[7],−10.38 mmHg
same,"Automated Office-Measured Diastolic Blood Pressure, Wk 8, mean",[8],65.00 mmHg
same,"Change from Baseline at Week 8 in Automated Office-Measured Diastolic Blood Pressure, mean",[8],−7.00 mmHg
same,"Automated Office-Measured Diastolic Blood Pressure, Wk 8, mean",[9],70.40 mmHg
same,"Change from Baseline at Week 8 in Automated Office-Measured Diastolic Blood Pressure, mean",[9],−6.10 mmHg
same,"Automated Office-Measured Diastolic Blood Pressure, Wk 8, mean",[10],77.00 mmHg
same,"Change from Baseline at Week 8 in Automated Office-Measured Diastolic Blood Pressure, mean",[10],−1.25 mmHg
same,"Automated Office-Measured Diastolic Blood Pressure, Wk 8, mean",[11],73.46 mmHg
same,"Change from Baseline at Week 8 in Automated Office-Measured Diastolic Blood Pressure, mean",[11],−5.88 mmHg
same,"Automated Office-Measured Diastolic Blood Pressure, Wk 8, mean",[12],71.93 mmHg
same,"Change from Baseline at Week 8 in Automated Office-Measured Diastolic Blood Pressure, mean",[12],−2.14 mmHg
same,"Automated Office-Measured Diastolic Blood Pressure, Wk 8, mean",[13],71.29 mmHg
same,"Change from Baseline at Week 8 in Automated Office-Measured Diastolic Blood Pressure, mean",[13],−11.79 mmHg
same,"Automated Office-Measured Diastolic Blood Pressure, Wk 8, mean",[14],72.00 mmHg
same,"Change from Baseline at Week 8 in Automated Office-Measured Diastolic Blood Pressure, mean",[14],−4.67 mmHg
same,"Automated Office-Measured Diastolic Blood Pressure, Wk 8, mean",[15],72.21 mmHg
same,"Change from Baseline at Week 8 in Automated Office-Measured Diastolic Blood Pressure, mean",[15],−5.94 mmHg
same,"Automated Office-Measured Diastolic Blood Pressure, Wk 8, mean",[16],72.09 mmHg
same,"Change from Baseline at Week 8 in Automated Office-Measured Diastolic Blood Pressure, mean",[16],−4.14 mmHg
same,"Automated Office-Measured Diastolic Blood Pressure, Wk 8, mean",[17],72.33 mmHg
same,"Change from Baseline at Week 8 in Automated Office-Measured Diastolic Blood Pressure, mean",[17],−6.78 mmHg
same,"Automated Office-Measured Diastolic Blood Pressure, Wk 8, mean",[18],72.10 mmHg
same,"Change from Baseline at Week 8 in Automated Office-Measured Diastolic Blood Pressure, mean",[18],−6.40 mmHg
same,"Automated Office-Measured Diastolic Blood Pressure, Wk 8, mean",[19],70.75 mmHg
same,"Change from Baseline at Week 8 in Automated Office-Measured Diastolic Blood Pressure, mean",[19],−6.28 mmHg
same,"Automated Office-Measured Diastolic Blood Pressure, Wk 8, mean",[20],75.00 mmHg
same,"Change from Baseline at Week 8 in Automated Office-Measured Diastolic Blood Pressure, mean",[20],−4.50 mmHg
same,Blood pressure reduction by background thiazide diuretic,across dosing cohorts,particularly effective at reducing the blood pressure of individuals who were receiving a thiazide diuretic
same,Blood pressure reduction by body mass index (BMI),across dosing cohorts,particularly effective at reducing the blood pressure of individuals with a body mass index (BMI) of greater than 30
same,Subjects with change in BPsys >−15 mmHg,[21],41%
same,Subjects with change in BPsys >−25 mmHg,[21],25%
same,Subjects achieving >−23 mmHg fall in systolic blood pressure,[22],25%
same,Subjects achieving ≥15 mmHg fall in systolic blood pressure,[22],41%
